# Assay results as given in the supplement of paper PMC9663587.
# Assays:
# Assay in all cases: increase in dead-cell fraction, 72 h; higher = more death;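 also: breast cancer cell lines in 384-well plates, stained with Hoechst plus LIVE/DEAD far red dye and imaged, cells above an LDR intensity threshold counted dead, Hoechst-negative corpses included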
# Neratinib/HKI272 = compound: CCOc1cc2ncc(C#N)c(Nc3ccc(OCc4ccccn4)c(Cl)c3)c2cc1NC(=O)/C=C/CN(C)C [Neratinib/HKI272]
# [1] = compound: CCc1cnn2c(NCc3ccc[n+]([O-])c3)cc(N3CCCC[C@H]3CCO)nc12
# LEE011/Ribociclib = compound: CN(C)C(=O)c1cc2cnc(Nc3ccc(N4CCNCC4)cn3)nc2n1C1CCCC1 [LEE011/Ribociclib]
# THZ531 = compound: CN(C)C/C=C/C(=O)Nc1ccc(C(=O)N2CCC[C@@H](Nc3ncc(Cl)c(-c4c[nH]c5ccccc45)n3)C2)cc1 [THZ531]
# THZ1 = compound: CN(C)C/C=C/C(=O)Nc1ccc(C(=O)Nc2cccc(Nc3ncc(Cl)c(-c4c[nH]c5ccccc45)n3)c2)cc1 [THZ1]
# Flavopiridol = compound: CN1CC[C@H](c2c(O)cc(O)c3c(=O)cc(-c4ccccc4Cl)oc23)[C@H](O)C1 [Flavopiridol]
cell line,measurement,setting,value
HS578T,increase in dead-cell fraction,Neratinib/HKI272; 0.3162 µM,0.0303
same,increase in dead-cell fraction,Neratinib/HKI272; 1 µM,0.061
same,increase in dead-cell fraction,Neratinib/HKI272; 3.162 µM,0.5
same,increase in dead-cell fraction,[1]; 0.0001 µM,0.0032
same,increase in dead-cell fraction,[1]; 0.0003162 µM,-0.0013
same,increase in dead-cell fraction,[1]; 0.001 µM,0.0026
same,increase in dead-cell fraction,[1]; 0.003162 µM,0.0085
same,increase in dead-cell fraction,[1]; 0.01 µM,0.187
same,increase in dead-cell fraction,[1]; 0.03162 µM,0.415
same,increase in dead-cell fraction,[1]; 0.1 µM,0.441
same,increase in dead-cell fraction,[1]; 0.3162 µM,0.423
same,increase in dead-cell fraction,[1]; 1 µM,0.443
same,increase in dead-cell fraction,LEE011/Ribociclib; 0.001 µM,0.0899
same,increase in dead-cell fraction,LEE011/Ribociclib; 0.003162 µM,0.0789
same,increase in dead-cell fraction,LEE011/Ribociclib; 0.01 µM,0.105
same,increase in dead-cell fraction,LEE011/Ribociclib; 0.03162 µM,0.0986
same,increase in dead-cell fraction,LEE011/Ribociclib; 0.1 µM,0.196
same,increase in dead-cell fraction,LEE011/Ribociclib; 0.3162 µM,0.2
same,increase in dead-cell fraction,LEE011/Ribociclib; 1 µM,0.245
same,increase in dead-cell fraction,LEE011/Ribociclib; 3.162 µM,0.248
same,increase in dead-cell fraction,LEE011/Ribociclib; 10 µM,0.243
same,increase in dead-cell fraction,THZ531; 0.0001 µM,0.0179
same,increase in dead-cell fraction,THZ531; 0.0003162 µM,0.0236
same,increase in dead-cell fraction,THZ531; 0.001 µM,-0.0057
same,increase in dead-cell fraction,THZ531; 0.003162 µM,0.0346
same,increase in dead-cell fraction,THZ531; 0.01 µM,-0.004
same,increase in dead-cell fraction,THZ531; 0.03162 µM,0.0086
same,increase in dead-cell fraction,THZ531; 0.1 µM,0.182
same,increase in dead-cell fraction,THZ531; 0.3162 µM,0.2
same,increase in dead-cell fraction,THZ531; 1 µM,0.283
same,increase in dead-cell fraction,THZ1; 0.0001 µM,-0.0022
same,increase in dead-cell fraction,THZ1; 0.0003162 µM,0.0144
same,increase in dead-cell fraction,THZ1; 0.001 µM,0.0176
same,increase in dead-cell fraction,THZ1; 0.003162 µM,-0.0036
same,increase in dead-cell fraction,THZ1; 0.01 µM,0
same,increase in dead-cell fraction,THZ1; 0.03162 µM,0.11
same,increase in dead-cell fraction,THZ1; 0.1 µM,0.174
same,increase in dead-cell fraction,THZ1; 0.3162 µM,0.216
same,increase in dead-cell fraction,THZ1; 1 µM,0.22
same,increase in dead-cell fraction,Flavopiridol; 0.0001 µM,0.0048
same,increase in dead-cell fraction,Flavopiridol; 0.0003162 µM,-0.0091
same,increase in dead-cell fraction,Flavopiridol; 0.001 µM,0.0178
same,increase in dead-cell fraction,Flavopiridol; 0.003162 µM,-0.0177
same,increase in dead-cell fraction,Flavopiridol; 0.01 µM,0.0333
same,increase in dead-cell fraction,Flavopiridol; 0.03162 µM,-0.0109
same,increase in dead-cell fraction,Flavopiridol; 0.1 µM,0.0094
same,increase in dead-cell fraction,Flavopiridol; 0.3162 µM,0.0312
same,increase in dead-cell fraction,Flavopiridol; 1 µM,0.288
